Test results reported in US8884023B2, “Pyrano [3,2-D][1,3]thiazole as glycosidase inhibitors” (priority 2011, dated 2014).
pEC50, pIC50: −log10 of the molar value. Read-outs that look alike come from different tables or passages of the source.

How the values were obtained:
[1] = target: T1, His-Tagged hOGA (human O-GlcNAcase) (Homo sapiens, UniProt O60502); experiment: biochemical
T1 sequence (O60502 1-916): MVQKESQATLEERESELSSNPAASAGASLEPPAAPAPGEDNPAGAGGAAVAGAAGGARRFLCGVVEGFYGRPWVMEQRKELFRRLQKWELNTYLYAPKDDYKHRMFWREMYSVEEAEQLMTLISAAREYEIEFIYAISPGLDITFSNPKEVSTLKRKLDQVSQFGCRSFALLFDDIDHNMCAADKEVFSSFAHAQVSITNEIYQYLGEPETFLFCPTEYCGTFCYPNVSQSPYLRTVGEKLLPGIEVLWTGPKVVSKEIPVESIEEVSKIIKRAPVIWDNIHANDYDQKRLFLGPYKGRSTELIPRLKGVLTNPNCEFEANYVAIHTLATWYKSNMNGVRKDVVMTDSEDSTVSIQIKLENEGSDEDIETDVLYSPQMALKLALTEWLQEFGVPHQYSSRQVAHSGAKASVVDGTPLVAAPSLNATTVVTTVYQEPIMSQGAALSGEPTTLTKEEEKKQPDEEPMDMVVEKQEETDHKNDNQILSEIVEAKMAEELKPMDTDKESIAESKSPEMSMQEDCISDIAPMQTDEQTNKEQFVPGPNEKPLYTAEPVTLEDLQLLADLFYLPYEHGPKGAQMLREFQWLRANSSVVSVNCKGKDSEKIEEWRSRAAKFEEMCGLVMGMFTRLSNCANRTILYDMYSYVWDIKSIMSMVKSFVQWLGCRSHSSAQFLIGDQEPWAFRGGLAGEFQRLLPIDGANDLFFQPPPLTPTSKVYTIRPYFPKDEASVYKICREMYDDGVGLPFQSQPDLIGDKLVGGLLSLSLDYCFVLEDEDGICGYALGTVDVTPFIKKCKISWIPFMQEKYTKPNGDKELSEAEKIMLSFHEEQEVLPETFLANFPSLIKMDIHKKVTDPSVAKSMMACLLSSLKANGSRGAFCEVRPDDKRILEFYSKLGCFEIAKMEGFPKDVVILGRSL

[2] = target: T2, O-GlcNAcase (UniProt Q8VIJ5); assay type: cell-based; conditions: cells expressing endogenous O-GlcNAcase (such as rat B35, rat PC-12, human SH-SY5Y), approximately 16 hours treatment; read-out: OGA cellular inhibition (EC50)
T2 sequence (Q8VIJ5 1-916): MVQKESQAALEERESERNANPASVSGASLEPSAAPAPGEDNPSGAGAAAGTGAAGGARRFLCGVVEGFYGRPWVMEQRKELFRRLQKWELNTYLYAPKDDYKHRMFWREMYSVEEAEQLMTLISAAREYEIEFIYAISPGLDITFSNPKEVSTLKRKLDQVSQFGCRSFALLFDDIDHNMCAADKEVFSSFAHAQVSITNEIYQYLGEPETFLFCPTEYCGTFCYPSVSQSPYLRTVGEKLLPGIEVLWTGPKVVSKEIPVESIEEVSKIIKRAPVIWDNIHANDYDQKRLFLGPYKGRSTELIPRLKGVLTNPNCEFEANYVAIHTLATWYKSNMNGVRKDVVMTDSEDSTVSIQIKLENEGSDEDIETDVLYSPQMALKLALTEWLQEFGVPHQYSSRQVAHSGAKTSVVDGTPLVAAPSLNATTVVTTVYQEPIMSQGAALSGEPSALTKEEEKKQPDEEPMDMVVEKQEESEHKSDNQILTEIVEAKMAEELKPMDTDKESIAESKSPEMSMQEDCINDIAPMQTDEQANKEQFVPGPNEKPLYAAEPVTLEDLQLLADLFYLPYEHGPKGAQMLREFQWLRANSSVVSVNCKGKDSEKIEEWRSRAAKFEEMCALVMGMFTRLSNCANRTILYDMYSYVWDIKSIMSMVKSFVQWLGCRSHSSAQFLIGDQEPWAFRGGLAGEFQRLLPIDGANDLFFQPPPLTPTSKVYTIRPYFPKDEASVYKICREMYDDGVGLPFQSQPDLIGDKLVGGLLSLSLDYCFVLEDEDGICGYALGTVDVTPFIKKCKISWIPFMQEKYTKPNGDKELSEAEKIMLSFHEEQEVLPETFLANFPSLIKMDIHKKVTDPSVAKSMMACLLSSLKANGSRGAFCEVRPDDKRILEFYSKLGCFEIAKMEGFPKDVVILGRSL
From the text: Assay for the Determination of Cellular Activity for Compounds that Inhibit O-GlcNAcase Activity
Inhibition of O-GlcNAcase, which removes O-GlcNAc from cellular proteins, results in an increase in the level of O-GlcNAcylated proteins in cells. An increase in the O-GlcNAcylation of cellular proteins can be measured by an antibody, such as CTD110.6, that binds O-GlcNAcylated proteins. The amount of O-GlcNAcylated protein can be determined by the enzyme linked immunoabsorbant assay (ELISA) technique.
Cell lines, such as rat B35, rat PC-12 and human SH-SY5Y cells, expressing endogenous levels of O-GlcNAcase, could be utilized. Cells were plated in 96-well plates at a density of approximately 10,000 cells/well. Compounds to be tested were dissolved in DMSO as 10 mM stock solution, and then diluted first with DMSO and then culture media using the Bravo workstation. Cells were treated with diluted compounds for approximately 16 hours. […] To prepare a cell lysate, the media from compound treated cells were removed, and the cells were washed once with Dulbecco's phosphate buffered saline (DPBS) and then lysed for 30 minutes in 100 μl/well of ice cold RIPA buffer containing a protease inhibitor cocktail.
The ELISA portion of the assay was performed in EIA/RIA plates that were coated overnight at 4 C with 80 μl/well of cell lysate. The following day the wells were washed 6 times with 200 μl of wash buffer (0.05% Tween20 in DPBS). The wells were blocked with 200 μl blocking buffer (1% BSA, 0.05% Tween20 in DPBS) for 1 h at room temperature. Each well was then washed 6 times with 200 μl of wash buffer. The anti-O-GlcNAc antibody CTD110.6 (Covance, Princeton, N.J.) was added at 100 μl/well at a concentration of 10 μg/ml. The plates were incubated for 1 h at room temperature. The wells were then washed 6 times with 200 μl/well of wash buffer. To detect the amount of CTD110.6 bound to the cell lysate, alkaline phosphatase conjugated goat anti-mouse IgM (diluted 1:500 in blocking buffer) was added at 100 μl/well and incubated for 45 min at room temperature. Each well was then washed 6 times with 200 μl/well of wash buffer. PNPP tablets dissolved in diethanolamine substrate buffer and 100 μl/well were added as detection reagent.
The amount of O-GlcNAcylated protein, as detected by the ELISA assay, was plotted for each concentration of test compound using standard curve fitting algorithms for sigmoidal dose response curves. The values for a four parameter logistic curve fit of the data were determined, with the inflection point of the curve being the potency value for the test compound.

[3] = read-out: OGA enzyme inhibition (IC50)

Row | Structure (SMILES) | pIC50 [1, 3] | pEC50 [2] | pIC50 [1]
1 | C/C=C/C(=O)NC1=N[C@@H]2[C@@H](O)[C@H](O)[C@@H](CO)O[C@@H]2S1 [compound no. 19, (2E)-N-[(3aR,5R,6S,7R,7aR)-6,7-dihydroxy-5-(hydroxymethyl)-5,6,7,7a-tetrahydro-3aH-pyrano[3,2-d][1,3]thiazol-2-yl]but-2-enamide] | 6.00 to 6.30 | < 6.00 | 
2 | CCNC1=N[C@@H]2[C@@H](O)[C@H](O)[C@@H](Cn3cc(CCc4ccccc4)nn3)O[C@@H]2S1 [compound no. 6, (3aR,5R,6S,7R,7aR)-2-(ethylamino)-5-{[4-(2-phenylethyl)-1H-1,2,3-triazol-1-yl]methyl}-5,6,7,7a-tetrahydro-3aH-pyrano[3,2-d][1,3]thiazole-6,7-diol] |  | 6.00 to 6.30 | > 7.00
3 | CCNC1=N[C@@H]2[C@@H](O)[C@H](O)[C@@H](Cn3cc(Cc4ccccc4)nn3)O[C@@H]2S1 [compound no. 14, (3aR,5R,6S,7R,7aR)-5-[(4-benzyl-1H-1,2,3-triazol-1-yl)methyl]-2-(ethylamino)-5,6,7,7a-tetrahydro-3aH-pyrano[3,2-d][1,3]thiazole-6,7-diol] |  | 6.30 to 7.00 | > 7.00
4 | CCNC1=N[C@@H]2[C@@H](O)[C@H](O)[C@@H](Cn3cc(CCCc4ccccc4)nn3)O[C@@H]2S1 [compound no. 30, (3aR,5R,6S,7R,7aR)-2-(ethylamino)-5-{[4-(3-phenylpropyl)-1H-1,2,3-triazol-1-yl]methyl}-5,6,7,7a-tetrahydro-3aH-pyrano[3,2-d][1,3]thiazole-6,7-diol] |  | < 6.00 | 6.30 to 7.00
5 | CCNC1=N[C@@H]2[C@@H](O)[C@H](O)[C@@H](Cn3cc(Cn4c5ccccc5c5ccccc54)nn3)O[C@@H]2S1 [compound 69] | 6.30 to 7.00 | 6.30 to 7.00 | 

Second part, led by results:

Row | pIC50 [1, 3] | pEC50 [2] | Structure (SMILES) | pIC50 [1]
6 | 6.30 to 7.00 | < 6.00 | CCNC1=N[C@@H]2[C@@H](O)[C@H](O)[C@@H](Cn3cc(-c4ccccc4)nn3)O[C@@H]2S1 [compound no. 2, (3aR,5R,6S,7R,7aR)-2-(ethylamino)-5-[(4-phenyl-1H-1,2,3-triazol-1-yl)methyl]-5,6,7,7a-tetrahydro-3aH-pyrano[3,2-d][1,3]thiazole-6,7-diol] | 
7 | > 7.00 | 6.30 to 7.00 | CCNC1=N[C@@H]2[C@@H](O)[C@H](O)[C@@H](CBr)O[C@@H]2S1 [compound no. 5, (3aR,5S,6S,7R,7aR)-5-(bromomethyl)-2-(ethylamino)-5,6,7,7a-tetrahydro-3aH-pyrano[3,2-d][1,3]thiazole-6,7-diol] | 
8 | > 7.00 | < 6.00 | CCNC1=N[C@@H]2[C@@H](O)[C@H](O)[C@@H](Cn3cc(Cn4cccc4)nn3)O[C@@H]2S1 [compound 66] | 
9 | 6.30 to 7.00 | 6.30 to 7.00 | CCNC1=N[C@@H]2[C@@H](O)[C@H](O)[C@@H](CN(C)C)O[C@@H]2S1 [compound no. 51, (3aR,5R,6S,7R,7aR)-5-[(dimethylamino)methyl]-2-(ethylamino)-5,6,7,7a-tetrahydro-3aH-pyrano[3,2-d][1,3]thiazole-6,7-diol] | 
10 | > 7.00 | 6.30 to 7.00 | CCNC1=N[C@@H]2[C@@H](O)[C@H](O)[C@@H](Cn3cc(COc4cccc(C)c4)nn3)O[C@@H]2S1 [compound 77] | 
